Results as given in patent US11628198B2, “Methods for prevention and treatment of acute renal injury” (Cornell University, priority 2008, dated 2023).
Marks after values point to notes of the source that are not given here. Non-standard residues stand in square brackets, D forms with d. No end group written: not given here.

Columns and labels:
CIN in patients = conditions: 443 patients randomly assigned; cited from earlier work
[1] = tested on: ATP content in renal tissue; experiment: I/R model: ATP content assay of kidney tissue; format: in vivo, rat
Procedure: (§1) Sprague Dawley rats (250˜300 g) were assigned to four groups: (1) sham surgery group without I/R; (2) I/R+saline vehicle treatment; (3) I/R+SS-20 treatment; (4) I/R+SS-31 treatment. Each experimental group consisted of 8 rats. SS-20 and SS-31 (3 mg/kg, dissolved in saline) were administered to rats 30 min before ischemia and immediately before onset of reperfusion. The control rats were given saline alone on the same schedule.
(§2) Rats were anesthetized with a mixture of ketamine (90 mg/kg, i.p.) and xylazine (4 mg/kg, i.p.). The left renal vascular pedicle was occluded temporarily using a micro-clamp for 30 or 45 min. At the end of the ischemic period, reperfusion was established by removing of the clamp. At that time, the contralateral right kidney was removed. After 24 h reperfusion, animals were sacrificed and blood samples were obtained by cardiac puncture. Renal function was determined by blood urea nitrogen (BUN) and serum creatinine (BioAssay Systems DIUR-500 and DICT-500).
ATP Content Assay: The kidney tissue was immediately put into 10 ml 5% trichloroacetic acid with 10 mM DTT, 2 mM EDTA and cut into small pieces. The tissue was homogenized on ice, incubated for another 10 min, centrifuged for 10 min at 2000×g, and neutralized with 10N KOH to pH 7.6. After centrifugation for 10 min at 2000×g, aliquots of the resulting supernatant were stored at −80° C. ATP was measured by bioluminescence (ATP bioluminescent kit, Sigma, MO, USA).

renal mitochondria = experiment: I/R model: respiration of isolated renal mitochondria; format: in vivo, rat; conditions: after 45 min ischemia, pretreatment
Procedure: Results. The effects of the aromatic-cationic peptides of the invention on a model of ARI caused by ischemia-reperfusion were investigated. Renal mitochondria were isolated in accordance with the procedures described above and oxygen consumption was measured.
State 3 respiration was initiated with the addition of ADP.

[2] = tested on: ARI caused by ischemia-reperfusion (I/R); experiment: I/R model: TUNEL assay for apoptosis; format: in vivo, rat; conditions: 30 min ischemia and 24 h reperfusion; 3 mg/kg
Procedure: as §1, §2
TUNEL Assay for Apoptosis: Renal tissue sections were deparaffinized and rehydrated by xylenes, graded alcohol series and deionized H2O, and then incubated in 20 μg/ml proteinase K for 20 min at RT. In situ cell death detection POD kit (Roche, IN, USA) was used according to the manufacturer's instructions. […]

[3] = tested on: ARI caused by ischemia-reperfusion (I/R); experiment: I/R model: renal morphologic examination (H&E, PAS); format: in vivo, rat; conditions: 45 min ischemia and 24 h reperfusion
Procedure: as §1, §2
Renal Morphologic Examination: Kidneys were fixed in 10% neutral-buffered formalin and embedded in paraffin wax. Three micron sections were stained with hematoxylin-eosin (H&E) and periodic acid-Schiff (PAS) and analyzed by light microscopy. Lesions were scored using the following criteria: [1] mitosis and necrosis of individual cells; [2] necrosis of all cells in adjacent proximal convoluted tubules with survival of surrounding tubules; [3] necrosis confined to the distal third of the proximal convoluted tubule with a band of necrosis extending across the inner cortex; and [4] necrosis affecting all three segments of the proximal convoluted tubule.

[4] = tested on: ARI caused by ischemia-reperfusion (I/R); experiment: I/R model of ARI: BUN and serum creatinine; format: in vivo, rat; conditions: 45 min ischemia and 24 h reperfusion; 3 mg/kg 30 min before ischemia and before reperfusion
Procedure: as §1, §2
BUN and serum creatinine were assayed using kits from BioAssay Systems (DIUR-500 and DICT-500). […] The # indicates p<0.05 from the IR=saline group.

Row | Molecule | incidence of CIN (CIN in patients) | ATP content in renal tissue ([1]; 1 h reperfusion following 45 min ischemia, vs vehicle) | ATP content in renal tissue ([1]; end of 15 min ischemia) | renal mitochondrial oxygen consumption (state 3 respiration) (renal mitochondria) | TUNEL-positive cells in the medulla (tubular cell apoptosis) [2] | histopathological score [3] | tubular cell injury (H&E, PAS) [3] | BUN [4] | serum creatinine [4]
1 | C[C@H](O)C(=O)Nc1c(I)c(C(=O)NC(CO)CO)c(I)c(C(=O)NC(CO)CO)c1I [Iopamidol (Isovue 370), Iopamidol] | 8.2% |  |  |  |  |  |  |  | 
2 | F[dR]FK-NH2 [SS-20] |  | significantly higher | not altered | significantly improved oxygen consumption | significantly prevented TUNEL-positive cells | significantly improved histopathological score | protected brush border and prevented necrosis in the proximal tubules | 130.7 ± 5.5# mg/dl | 1.06 ± 0.11# mg/dl
